Here are results for 11 compounds from ChEMBL document CHEMBL1201862, “PubChem BioAssay data set” (2004).

Test in all cases: inhibition of tumour cell growth, NCI panel, 48 h
For experiment [1], the system named is 786-0.
Experiment [2] concerns ACHN.
Experiment [3] has as its system CCRF-CEM.
Experiment [4] deals with DU-145.
Experiment [5] relates to HCC 2998.
For experiment [6], the system named is HCT-116.
In experiment [7] the test system is HOP-92.
Experiment [8] has as its system HT-29.
Experiment [9] deals with M14.
For experiment [10], the system named is MCF7.
Experiment [11] has as its system NCI-H226.
For experiment [12], the system named is NCI-H460.
Experiment [13] concerns NCI/ADR-RES.
The subject of experiment [14] is PC-3.
The subject of experiment [15] is SK-MEL-28.
Experiment [16] has as its system SK-OV-3.
Experiment [17] relates to SN12C.
Experiment [18] deals with SNB-19.
The subject of experiment [19] is COLO 205.
Experiment [20] relates to SR.

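Exposure lasted 48 hours, with cells grown in 96-well plates and compounds tested at five concentrations. GI50 = concentration required for 50% inhibition of growth.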 Activity calls are given as the source filed them. No stated cut-off is given here; in the data, active = GI50 up to about 1.1 µM and inactive = higher. Some results are limits rather than exact numbers.

In the case of `N#CC(C#N)=C(N)/C(C#N)=C/c1ccc2ccccc2n1`, the GI50 in [1] is 17.9 µM (inactive); in experiment [2], 17.2 µM (inactive); in experiment [3], 24.1 µM (inactive); in experiment [4], > 100 µM (inactive); in experiment [5], 77.3 µM (inactive); in experiment [6], 15.1 µM (inactive). Further, the GI50 in experiment [7] was 18.3 µM (inactive); in experiment [8], 18.6 µM (inactive); in experiment [9] it was 33.7 µM (inactive); in experiment [10], 30.7 µM (inactive); in [11], 93.5 µM (inactive); in experiment [12], 85.7 µM (inactive). The GI50 in experiment [13] was 34.3 µM (inactive); in experiment [14] it was 26.2 µM (inactive); in experiment [15], 18.6 µM (inactive); in [16], 35.3 µM (inactive); in experiment [17], 30.1 µM (inactive); in [18], 24.3 µM (inactive).

As to `C=CC[C@@H](N)C(=O)N(C)[C@@H](C)[C@@H](O)c1ccccc1`, the GI50 in [1], in experiment [2], in [3], in experiment [19], in [4] and in [6] was > 100 µM (inactive) throughout. The GI50 in experiment [7] was 54.6 µM (inactive); in experiment [9], > 100 µM (inactive); in experiment [11], > 100 µM (inactive); in experiment [12], > 100 µM (inactive); in experiment [13], > 100 µM (inactive); in experiment [14] it was > 100 µM (inactive). In addition, the GI50 in experiment [15], in [16] and in experiment [18] was > 100 µM (inactive) in each case.

Consider `CC(=O)OCC(=O)[C@@]12OC(C)(C)O[C@@H]1C[C@H]1[C@@H]3CC=C4C[C@@H](O)CC[C@]4(C)[C@H]3CC[C@@]12C`, for which the GI50 is 41.4 µM (inactive) in experiment [1]; 92.9 µM (inactive) in [2]; > 100 µM (inactive) in [3]; > 100 µM (inactive) in [19]; 49.2 µM (inactive) in [4]; 68.1 µM (inactive) in experiment [6]. Also, the GI50 in experiment [8] is > 100 µM (inactive); in experiment [9] it was > 100 µM (inactive); in experiment [10], > 100 µM (inactive); in experiment [11], > 100 µM (inactive); in experiment [13], 66.5 µM (inactive); in experiment [14] it was > 100 µM (inactive). The GI50 in [15] was > 100 µM (inactive); in [16] it was 38.3 µM (inactive); in experiment [17], 43.9 µM (inactive); in experiment [18] it was 39.9 µM (inactive); in experiment [20] it was > 100 µM (inactive).

In the case of `O=[N+]([O-])c1ccc(CSc2nn(Cc3ccc([N+](=O)[O-])cc3)cc3ncnc2-3)cc1`, the GI50 is 47.5 µM (inactive) in [1]; 27.5 µM (inactive) in [2]; > 10 µM (inactive) in experiment [3]; 39.5 µM (inactive) in [19]; 35.6 µM (inactive) in [5]; 37.1 µM (inactive) in experiment [6]. Also, the GI50 is 0.361 µM (active) in [7]; 29.6 µM (inactive) in experiment [8]; 34.8 µM (inactive) in [9]; 27.9 µM (inactive) in experiment [10]; 38.4 µM (inactive) in experiment [11]; 44 µM (inactive) in experiment [13]. In addition, the GI50 was 35.5 µM (inactive) in experiment [14], 22.1 µM (inactive) in [15], > 100 µM (inactive) in experiment [16] and 57.4 µM (inactive) in experiment [17].

`CSc1ncc2c(n1)sc1c(=O)n(-c3ccccc3)cnc12`: the GI50 in [1], in [2], in [3], in [19], in experiment [4] and in experiment [5] was > 100 µM (inactive) each time. Moreover, the GI50 in experiment [6], in experiment [7], in [8], in experiment [9], in [11] and in [12] was > 100 µM (inactive) throughout. Also, the GI50 in experiment [13], in experiment [14], in [15], in experiment [16], in experiment [17] and in [18] was > 100 µM (inactive) in each case. In [20], the GI50 was > 100 µM (inactive).

Consider `COC(=O)c1ccccc1/C=C1\Cc2cc3c(cc2C1=O)CCC3`, for which the GI50 in experiment [1] was 38.4 µM (inactive); in experiment [2], > 100 µM (inactive); in experiment [19], > 100 µM (inactive); in experiment [4] it was > 100 µM (inactive); in experiment [5], > 100 µM (inactive); in [6], 45 µM (inactive). In addition, the GI50 in [8] was > 100 µM (inactive); in [9], 24 µM (inactive); in experiment [10] it was 40.6 µM (inactive); in experiment [11] it was > 100 µM (inactive); in [12], > 100 µM (inactive); in [13], > 100 µM (inactive). The GI50 is 8.51 µM (inactive) in experiment [14]; > 100 µM (inactive) in [15]; > 100 µM (inactive) in [16]; > 100 µM (inactive) in experiment [17]; > 100 µM (inactive) in experiment [18]; > 100 µM (inactive) in [20].

As for `C[C@H]1CN[C@@H]2[C@@H](C)[C@H]3[C@@H](C[C@H]4[C@@H]5CC[C@H]6C[C@@H](N)CC[C@]6(C)[C@H]5CC[C@]34C)O[C@@]2(O)C1`, the GI50 is 1.69 µM (inactive) in [1]; 2.65 µM (inactive) in experiment [2]; 0.561 µM (active) in experiment [3]; 1.51 µM (inactive) in experiment [19]; 4.03 µM (inactive) in experiment [4]; 1.8 µM (inactive) in experiment [5]. Moreover, the GI50 was 1.29 µM (inactive) in experiment [6]; 2.47 µM (inactive) in experiment [7]; 1.19 µM (inactive) in experiment [8]; 2.04 µM (inactive) in experiment [9]; 4.18 µM (inactive) in experiment [10]; 2.38 µM (inactive) in experiment [11]. The GI50 in experiment [12] was 2.32 µM (inactive); in experiment [13] it was 2.54 µM (inactive); in [14] it was 2.79 µM (inactive); in [15] it was 1.77 µM (inactive); in experiment [16], 6.67 µM (inactive); in [17], 1.42 µM (inactive). Further, the GI50 in [18] was 2.07 µM (inactive).

As to `CCn1cnc2c(NC(C)=O)ncnc21`, the GI50 in experiment [1], in experiment [2], in experiment [3], in [19], in experiment [4] and in experiment [5] was > 100 µM (inactive) throughout. Further, the GI50 in experiment [6], in experiment [7], in experiment [8], in experiment [9], in experiment [10] and in experiment [11] was > 100 µM (inactive) each time. In addition, the GI50 in experiment [12], in experiment [13], in experiment [14], in [15], in experiment [16] and in experiment [17] was > 100 µM (inactive) in each case. The GI50 in experiment [18] was > 100 µM (inactive).

With `CCSc1[nH]c(/N=C(/NC(=O)c2ccccc2)NC(C)C)c(C(N)=O)c1C(N)=O`, the GI50 in experiment [1], in [3], in experiment [19], in [4], in experiment [5] and in experiment [7] was > 10 µM (inactive) each time. In addition, the GI50 in [8], in experiment [9], in [10], in experiment [14], in [15] and in experiment [16] was > 10 µM (inactive) throughout. Moreover, the GI50 in [17] and in experiment [20] was > 10 µM (inactive) throughout.

As to `CCOC(=O)C1=NN(c2ccc([N+](=O)[O-])cc2)[C@@]2(C)C[C@]3(c4ccccc4)N(c4ccc([N+](=O)[O-])cc4)N=C(C(=O)OCC)N3c3ccccc3N12`, the GI50 in [1], in experiment [2], in [3], in experiment [19], in experiment [4] and in [5] was > 100 µM (inactive) throughout. Moreover, the GI50 was > 100 µM (inactive) in experiment [6]; > 100 µM (inactive) in [8]; 53.2 µM (inactive) in [9]; > 100 µM (inactive) in [10]; > 100 µM (inactive) in experiment [11]; > 100 µM (inactive) in [13]. The GI50 in experiment [14], in [15], in [16], in [17], in experiment [18] and in experiment [20] was > 100 µM (inactive) in each case.

Turning to `O=C1OC2c3ccccc3C(=O)C2(c2ccccc2)N1c1ccccc1` (configuration not stated), the GI50 was > 200 µM (inactive) in experiment [1]; > 200 µM (inactive) in [2]; 128 µM (inactive) in experiment [3]; 86.1 µM (inactive) in experiment [19]; > 200 µM (inactive) in experiment [4]; > 200 µM (inactive) in experiment [5]. Further, the GI50 in [6], in [7], in experiment [8], in experiment [9], in experiment [10] and in experiment [11] was > 200 µM (inactive) each time. Also, the GI50 is > 200 µM (inactive) in [12]; > 200 µM (inactive) in [13]; 183 µM (inactive) in [14]; > 200 µM (inactive) in experiment [15]; > 200 µM (inactive) in experiment [16]; > 200 µM (inactive) in [17]. The GI50 in experiment [18] was > 200 µM (inactive).
